Measured values from ChEMBL document CHEMBL2424638, “6-Bromo-8-(4-[(3)H]methoxybenzamido)-4-oxo-4H-chromene-2-carboxylic Acid: a powerful tool for studying orphan G protein-coupled receptor GPR35” (J Med Chem, 2013).

Experiments:
[1] = target: T1, G-protein coupled receptor 35 (Homo sapiens, UniProt Q9HC97); assay: biochemical; format: cell-based, CHO
Description: Displacement of [3H]PSB-13253 from human recombinant GPR35 exprssed in CHO cells by liquid scintillation counting analysis

[2] = target: T1, G-protein coupled receptor 35; assay: Agonist activity at C-terminal beta-galactosidase tagged human recombinant GPR35 expressed in CHO cells at 100 uM after 90 mins by beta-arrestin recruitment assay relative to zaprinast; format: cell-based
[3] = target: T1, G-protein coupled receptor 35; assay: Agonist activity at C-terminal beta-galactosidase tagged human recombinant GPR35 expressed in CHO cells after 90 mins by beta-arrestin recruitment assay; format: cell-based
[4] = target: T1, G-protein coupled receptor 35; assay: Displacement of [3H]PSB-13253 from human recombinant GPR35 exprssed in CHO cells at 10 uM by liquid scintillation counting analysis; format: cell-based
[5] = target: T1, G-protein coupled receptor 35; assay: Agonist activity at human GPR35 expressed in HEK293T cells at 5 uM by EYPF-based beta-arrestin-2 luciferase reporter gene assay; format: cell-based, HEK-293T
[6] = target: T1, G-protein coupled receptor 35; assay: Binding affinity to human recombinant GPR35 expressed in CHO cells after 150 mins by liquid scintillation counting analysis
[7] = target: T1, G-protein coupled receptor 35; assay: Competitive binding affinity to human recombinant GPR35 expressed in CHO cells by scintillation counting analysis in presence of CaCl2; format: cell-based
[8] = target: T1, G-protein coupled receptor 35; assay: Competitive binding affinity to human recombinant GPR35 expressed in CHO cells by scintillation counting analysis in presence of MgCl2; format: cell-based
[9] = target: T1, G-protein coupled receptor 35; assay: Binding affinity to human recombinant GPR35 expressed in CHO cells by scintillation counting analysis in absence of MgCl2, NaCl, CaCl2; format: cell-based
[10] = target: T1, G-protein coupled receptor 35; assay: Agonist activity at human GPR35 expressed in CHO cells assessed as increase in intracellular Ca2+ measured over 20 secs by Aequorin assay; format: functional, cell-based
[11] = target: T1, G-protein coupled receptor 35; assay: Agonist activity at human GPR35 by Ca+2 release assay
[12] = target: T1, G-protein coupled receptor 35; assay: Agonist activity at human GPR35 by DMR assay
[13] = target: T1, G-protein coupled receptor 35; assay: Antagonist activity at human GPR35 expressed in human HT29 cells after 1 hr by DMR assay; format: cell-based; conditions: ht-29
[14] = target: T1, G-protein coupled receptor 35; assay: Antagonist activity at human Gal4-VP16 fused GPR35 expressed in human U2OS cells assessed as beta arrestin translocation by reporter gene assay; format: cell-based
[15] = target: T1, G-protein coupled receptor 35; assay: Antagonist activity at C-terminal beta-galactosidase tagged human recombinant GPR35 expressed in CHO cells after 90 mins by beta-arrestin recruitment assay; format: cell-based
[16] = target: T1, G-protein coupled receptor 35; conditions: CHO, 5 nM
[17] = target: T1, G-protein coupled receptor 35; conditions: CHO, 5 nM; remark: listed apart in the source
[18] = target: T1, G-protein coupled receptor 35; conditions: CHO, 5 nM; remark: listed apart in the source
[19] = target: T1, G-protein coupled receptor 35; conditions: CHO, 5 nM; remark: listed apart in the source
[20] = target: T1, G-protein coupled receptor 35; conditions: CHO, 5 nM; remark: listed apart in the source

T1 sequence (Q9HC97 whole entry): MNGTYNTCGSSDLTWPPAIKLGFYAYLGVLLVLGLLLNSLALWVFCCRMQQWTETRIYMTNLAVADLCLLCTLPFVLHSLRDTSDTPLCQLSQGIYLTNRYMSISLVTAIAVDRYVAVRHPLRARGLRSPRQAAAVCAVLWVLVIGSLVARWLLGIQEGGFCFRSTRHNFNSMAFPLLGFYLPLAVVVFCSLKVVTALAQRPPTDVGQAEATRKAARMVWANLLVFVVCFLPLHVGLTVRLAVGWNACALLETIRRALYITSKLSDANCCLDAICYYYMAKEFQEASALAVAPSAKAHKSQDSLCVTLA

Row | Compound | Ki [1] | other results
1 | Cc1cccc(C(=O)Nc2cccc3c(=O)cc(C(=O)O)oc23)c1 | 4.78 µM | 
2 | COC(=O)CC(=O)Nc1cccc2c(=O)cc(C(=O)O)oc12 | 18.6 µM | 
3 | CCCOc1ccc(C(=O)Nc2cccc3c(=O)cc(C(=O)O)oc23)cc1 | 8.06 µM | 
4 | O=C(O)c1cc(=O)c2cccc([N+](=O)[O-])c2o1 | 13.6 µM | 
5 | Cc1cccc(C(=O)Nc2cc(Cl)cc3c(=O)cc(C(=O)O)oc23)c1 | 0.25 µM | 
6 | CCC(=O)Nc1cccc2c(=O)cc(C(=O)O)oc12 | 6.77 µM | 
7 | Cc1ccc(C(=O)Nc2cccc3c(=O)cc(C(=O)O)oc23)cc1 | 0.697 µM | 
8 | CC(=O)Nc1cccc2c(=O)cc(C(=O)O)oc12 | 18.5 µM | 
9 | O=C(Nc1cccc2c(=O)cc(C(=O)O)oc12)c1ccc2ccccc2n1 | 0.691 µM | 
10 | O=C(Nc1cccc2c(=O)cc(C(=O)O)oc12)c1ccc2ccccc2c1 | 0.714 µM | 
11 | O=C(Nc1cccc2c(=O)cc(C(=O)O)oc12)c1ccc(C(F)(F)F)cc1 | 10.3 µM | 
12 | Nc1cccc2c(=O)cc(C(=O)O)oc12 |  | inhibition [4]: 7%
13 | O=C(Nc1cccc2c(=O)cc(C(=O)O)oc12)c1ccccc1 | 3.29 µM | 
14 | O=C(O)c1cc2ccccc2c(Cc2c(O)c(C(=O)O)cc3ccccc23)c1O |  | Emax [2]: 95%
15 | NS(=O)(=O)c1cc(C(=O)O)c(NCc2ccco2)cc1Cl |  | Emax [2]: 96%
16 | [3H]C([3H])([3H])Oc1ccc(C(=O)Nc2cc(Br)cc3c(=O)cc(C(=O)O)oc23)cc1 |  | Kd [6]: 0.00527 µM; Kd [7]: 0.00592 µM; Kd [8]: 0.00565 µM; Kd [9]: 0.115 µM
17 | O=C(O)c1cc(=O)c2cccc(NC(=O)C3CCCCC3)c2o1 | 3.58 µM | 
18 | O=C(O)c1cc(=O)c2ccccc2[nH]1 [TRANSTORINE] | 137 µM | EC50 [10]: 39.2 µM
19 | O=C(O)c1cc(=O)c2c(OCC(O)COc3cccc4oc(C(=O)O)cc(=O)c34)cccc2o1 [CROMOLYN] | 2.34 µM | EC50 [11]: 0.21 µM; EC50 [12]: 0.52 µM; Emax [2]: 119%
20 | O=C(Nc1cccc2c(=O)cc(C(=O)O)oc12)c1ccc(OCC2CC2)cc1 | 3.71 µM | 
21 | O=C(Nc1cccc2c(=O)cc(C(=O)O)oc12)c1ccc(Br)cc1 | 0.233 µM | 
22 | Nc1cc(Br)cc2c(=O)cc(C(=O)O)oc12 | 3.01 µM | 
23 | O=C(Nc1cccc2c(=O)cc(C(=O)O)oc12)c1cccc([N+](=O)[O-])c1 | 4.39 µM | 
24 | CC1=C(C#N)C(=C(C#N)C#N)OC1(C)c1ccc(Cl)c(Cl)c1 (stereo unspecified) | 0.655 µM | 
25 | O=C(Cc1ccccc1)Nc1cccc2c(=O)cc(C(=O)O)oc12 | 2.72 µM | 
26 | COc1ccccc1C(=O)Nc1cc(Br)cc2c(=O)cc(C(=O)O)oc12 | 0.331 µM | 

Continued, in another order:

Row | Ki [1] | Compound | other results
27 | 0.119 µM | O=C(O)c1cc(=O)c2cc(F)cc(NC(=O)c3cccc(Cl)c3Cl)c2o1 | 
28 | 0.00479 µM | O=C(Nc1cc(Br)cc2c(=O)cc(C(=O)O)oc12)c1ccc(Cl)cc1 | 
29 | 0.00137 µM | COc1ccc(C(=O)Nc2cc(Br)cc3c(=O)cc(C(=O)O)oc23)c(F)c1 | Emax [2]: 120%; EC50 [3]: 0.00445 µM
30 | 0.0205 µM | COc1ccc(C(=O)Nc2cc(OC)cc3c(=O)cc(C(=O)O)oc23)cc1 | Emax [2]: 124%; EC50 [3]: 0.0255 µM
31 | 0.0055 µM | COc1ccc(C(=O)Nc2cc(Cl)cc3c(=O)cc(C(=O)O)oc23)cc1 | 
32 | 0.0816 µM | O=C(Nc1cc(Br)cc2c(=O)cc(C(=O)O)oc12)c1ccccc1 | 
33 | 0.228 µM | COc1ccc(C(=O)Nc2cc(Br)cc3c(=O)cc(C(=O)O)oc23)cc1OC | 
34 | 0.000938 µM | O=C(O)c1cc(=O)c2cc(Br)cc(NC(=O)c3ccc(Cl)cc3Cl)c2o1 | 
35 | 0.00192 µM | COc1ccc(C(=O)Nc2cc(Cl)cc3c(=O)cc(C(=O)O)oc23)c(F)c1 | Emax [2]: 111%; EC50 [3]: 0.00606 µM
36 | 0.00164 µM | COc1ccc(C(=O)Nc2cc(Br)cc3c(=O)cc(C(=O)O)oc23)cc1F | Emax [2]: 120%; EC50 [3]: 0.00437 µM
37 | 0.0254 µM | COc1ccc(C(=O)Nc2cc(F)cc3c(=O)cc(C(=O)O)oc23)cc1 | 
38 | 0.0115 µM | O=C(Nc1cc(F)cc2c(=O)cc(C(=O)O)oc12)c1ccc(Cl)c(Cl)c1 | 
39 | 0.00218 µM | O=C(Nc1cc(Br)cc2c(=O)cc(C(=O)O)oc12)c1ccc(Cl)c(Cl)c1 | EC50 [3]: 0.0251 µM
40 | 0.0428 µM | COc1ccc(C(=O)Nc2cc(C)cc3c(=O)cc(C(=O)O)oc23)cc1 | Emax [2]: 118%; EC50 [3]: 0.0377 µM
41 | 0.0257 µM | COc1ccc(C(=O)Nc2cc(Br)cc3c(=O)cc(C(=O)O)oc23)cn1 | 
42 | 0.000589 µM | COc1cc(F)c(C(=O)Nc2cc(Br)cc3c(=O)cc(C(=O)O)oc23)c(F)c1 | Emax [2]: 119%; EC50 [3]: 0.00554 µM

Row | Ki [1] | Compound | other results
43 | 0.039 µM | O=c1oc2ccccc2c(O)c1Cc1c(O)c2ccccc2oc1=O [DICUMAROL] | EC50 [5]: 1.3 µM; Emax [2]: 107%; EC50 [3]: 9.78 µM
44 | 0.015 µM | O=C(Nc1cc(Br)cc2c(=O)cc(C(=O)O)oc12)c1ccc2c(c1)OCO2 | 
45 | 0.00412 µM | O=C(O)c1cc(=O)c2cc(F)cc(NC(=O)c3ccc(Cl)cc3Cl)c2o1 | 
46 | 0.138 µM | O=C(Nc1cc(Cl)cc2c(=O)cc(C(=O)O)oc12)c1ccccc1 | 
47 | 0.0508 µM | O=C(O)COc1ccc(/C=C2\SC(=O)NC2=O)cc1 | EC50 [5]: 1.4 µM; Emax [2]: 107%; EC50 [3]: 0.349 µM
48 | 0.198 µM | CCOC(=O)c1cc(=O)c2cc(F)cc(NC(=O)c3ccc(OC)cc3)c2o1 | 
49 | 0.183 µM | O=C(Nc1cc(Cl)cc2c(=O)cc(C(=O)O)oc12)c1ccc([N+](=O)[O-])cc1 | 
50 | 0.0984 µM | CCOc1ccc(C(=O)Nc2cc(Br)cc3c(=O)cc(C(=O)O)oc23)cc1 | 
51 | 0.221 µM | COc1ccc(C(=O)Nc2cccc3c(=O)cc(C(=O)O)oc23)cc1 | 
52 | 0.0422 µM | COC(=O)c1cnn(-c2ccc(F)cc2F)c1/C=N/NC(=S)NC(C)(C)C | IC50 [13]: 10.4 µM; IC50 [14]: 0.2 µM; IC50 [15]: 0.574 µM
53 | 0.0568 µM | COc1ccc(C(=O)Nc2cc(Br)cc3c(=O)cc(C(=O)O)oc23)nc1 | 
54 | 0.00112 µM | COc1ccc(C(=O)Nc2cc(Br)cc3c(=O)cc(C(=O)O)oc23)c(Cl)c1 | 
55 | 0.128 µM | Cc1cccc(C(=O)Nc2cc(Br)cc3c(=O)cc(C(=O)O)oc23)c1 | 
56 | 0.00518 µM | COc1ccc(C(=O)Nc2cc(Br)cc3c(=O)cc(C(=O)O)oc23)cc1 | inhibition [16]: 85%; inhibition [17]: 90%; inhibition [18]: 65%; T1/2 [19]: 7.8 min; T1/2 [20]: 9.91 min
57 | 0.148 µM | N#Cc1ccc(C(=O)Nc2cc(Br)cc3c(=O)cc(C(=O)O)oc23)cc1 | 
